We go through one molecule from US20050220906A1, “Pharmaceutical composition for treating rheumatism and the preparation thereof” (priority 2002, published 2005).

One test deals with DTH caused by DNFB. Kind of test: Delayed hypersensitivity (DTH) caused by DNFB in the mouse ear. It counts as in vivo, NIH mouse. As for the experimental part: Each mouse was led to hypersensitivity reaction by using the 1% DNFB acetone solution on the dosage of 0.025 ml at the right place of the abdomen where the pilus had been cut yet. Using the same solution on the same place was to enhance the hypersensitivity reaction on the third day. On the fifth day, all the mice were smeared with the 1% DNFB edible oil solution at the mice's right ears on the dosage of 0.01 ml each. 24 hours later, all the mice were killed. The mouse's 2 ears were weighted by the torsion balance and the difference of the 2 ears was recorded as the DTH degree caused by the DNFB. The experiment was carried out on the different immune and administration processes.
The immune and administration processes is as following: [drawing 1]

The next test has as its system IL-1. The test is described as follows: IL-1 of abdominal macrophages from dosed mice. Type of test: in vivo, NIH mice. The following applies: 0.02 g/kg, 10 days. The procedure:
(§1) 70 NIH mice, 18-22 g weight, half male and half female, were divided into 7 groups at random. All the groups were drenched with the correspondent medicines (fengshiping and the other medicines). The medicines were drenched once a day for 10 days. 24 hours after the last administration, all the mice were killed and sampled the macrophage and spleen cells from the abdominal carvity. The IL-1 and IL-6 in the samples were measured.
The macrophages in the abdominal carvity were sampled in the asepsis condition. Then the samples were washed by the Hank's liquor for 2 times and nonserum RPMI1640 liquor for 1 time. Then the clear samples were adjusted to the 4×10^6/ml cell suspension with 5% FCS-RPMI liquor. 1 ml of the suspension was added to the test tube and cultured at 37° C. for 1 hour. The unadherent cells were abandoned. Then the cultured liquor was added with 5% FCS-RPMI 1640 and LPS (10 ng/ml) to culture. The cells cultured in 5% CO2 at 37° C. for 72 hours. During the course, the cultured cells were freezed and thawed for several times. The final product was saved at 4° C. The C57 mice were sampled the thymus in the asepsis condition. […]
100 μl supernate separated from the frost thawing liquor and 100 μl cell suspension of thymus were added into the 96-hole flat bottom cell-culture batten. […] The cultured cells were collected with multihead cell-harvesting apparatus and measured the cpm value. […]

A further test relates to IL-6. The test is described as follows: IL-6 of spleen cells from dosed mice (MH60 cells). It counts as in vivo, NIH mice. The following applies: 0.02 g/kg, 10 days. The procedure: as §1
The spleen cells were sampled in the asepsis condition. Then the samples were washed by the Hank's liquor for 2 times and nonserum RPMI1640 liquor for 1 time. Then the clear samples were adjusted to the 2×10^6/ml cell suspension with 5% FCS-RPMI liquor. 1 ml of the suspension was added to the round-bottom centrifuge tube. After adding the ConA (10 ng/ml), the samples were cultured in the 5% CO2 at 37° C. for 72 hour.
The MH60 cells, which grew depending on the IL-6 and were on the logarithmic growth stage, were adjusted to the 1×10^5/ml cell suspension with the 5% FC-RPMI1640.
The 96-hole flat bottom cell culturing batten was added with the MH60 cell suspension on the quantity of 100 μl/hole and the culturing supernate 25 μl/hole. Then the fluid in each hole was adjusted to the 200 μl with the 5% FCS-RPMI 1640. […] And then they were measured the OD at the wavelength 570 nm and 630 nm. […]

The subject of another test is spleen cells. The test is described as follows: Lymphocyte transformation induced by ConA. It counts as in vivo, NIH mice. The following applies: 0.02 g/kg. The procedure: 80 NIH mice, half male and half female, were divided into 8 groups randomly and drenched with the correspondent medicines once a day for 10 days. 24 hours after the last administration, all the mice were killed to sample the spleen cells aseptically. Then the samples were washed by the Hank's liquor for 2 times and nonserum RPMI1640 liquor for 1 time. Then the clear samples were adjusted to the 2×10^6/ml cell suspension with 5% FCS-RPMI liquor. The 96-hole flat bottom cell culturing batten was added with the cell suspension on the quantity of 100 μl/hole. Each sample was cultured with 3 copies. 2 holes were added in 2 ng ConA each as the stimulating reagent. The other hole was not added in the ConA and kept as the control hole. The batten was cultured in 5% CO2 at 37° C. for 72 hours. 14 hours before the end of the culture, each hole was added in 3H-TdR 0.1μ Ci. The cells were harvested by the multihead cell harvesting instrument and measured the cpm value. The average value was adopted as the sample's cpm value. The average value and the stimulating index of the different groups were compared directly. The stimulating index was calculated as following: […]

The next test relates to CD4, CD8 cells. Kind of test: CD4 and CD8 cells of the spleen. It counts as in vivo, ICR mice. The following applies: 0.02 g/kg. The procedure:
The experiment was same to 5.1. 24 hours after the last administration, the spleen cell samples were made into the 2×10^8/ml cell suspension with 5% FCS-RPIM1640. The quantity of CD4, CD8, NK cells and the rate CD4/CD8 were measured on the usural method.
The spleen cell suspension 50 μl was added on the glass to made the cell smear. The glass had been coated by the polylysine. The T cell of the mouse was set as the positive control sample. The cell smear was enveloped by the serum of the normal mouse after it was fixed by the acetone. Then the enveloped sample was added with the antibody of CD4 and CD8 which were marked by the hominine biotin. It was incubated at 37° C. for 2 hours. Then the sample was added with the avidin labeled by enzyme and put still for 10 min. After added with the substrate for 10 min, the mixed sample was washed and dyed with the hematoxylin for 2 min. Then the sample was dyhidrated with the grade-alcohol and enveloped with gelatin-glycetrol. 200 cells in the smear were chosen as the research target under the high power microscope. [formula]

[1] abbreviates: 0.05 g/kg, administration day −2˜0.
Setting [2] is: 0.05 g/kg, administration day −2˜2.
Setting [3] is: 0.1 × 3 g/kg, 0, 2, 4 day once a day.

With `O=P1(N(CCCl)CCCl)NCCCO1` (stereo not drawn) [cyclophosphane], in the test on DTH caused by DNFB (setting [1]), the “Percent of ear swelling” value was 37.47 ± 6.71 and the Percent of inhibition was determined as 11.7%. Moreover, in the test with DTH caused by DNFB (setting [2]), the “Percent of ear swelling” value is 39.40 ± 10.78 and the Percent of inhibition is reported as 8.1%. For the same molecule, in the test on DTH caused by DNFB (setting [3]), the “Percent of ear swelling” value was determined as 23.00 ± 7.65 and the Percent of inhibition was 40.3%. Also, in the test with DTH caused by DNFB (0.25 g/kg, −3 d), the “Percent of ear swelling” value was 41.84 ± 7.75 and the Percent of inhibition is −8.7%. Besides, in the test on IL-1, the IL-1 stood at 44.5 ± 7.7 ng/mL. Also, in the test with IL-6, the IL-6 is 49.6 ± 6.7 IU/ml. Moreover, in the test on spleen cells, the Stimulating index is recorded as 13.66 ± 2.28 and the cpm came out at 9922 ± 1145 cpm. Also, in the test with CD4, CD8 cells, the CD4 was 11.50 ± 2.50 %, the CD4/CD8 came out at 2.91 ± 0.53 and the CD8 amounted to 4.10 ± 1.20 %.
